Experimental data as given in patent US10005768B2, “Carboxamide derivatives and use thereof” (Purdue Pharma L.P., priority 2013, dated 2018).

target: human Nav1.7 (Homo sapiens (Human), UniProt Q15858); assay: FLIPR membrane potential dye assay (alternative fluorescence assay); assay type: cell-based; details: recombinant Nav1.7/HEK293 cells
Protocol: In vitro assays were performed in a recombinant cell line expressing cDNA encoding the alpha subunit (Nav1.7, SCN9a, PN1, NE) of human Nav1.7 (Accession No. NM_002977). The cell line was provided by investigators at Yale University (Cummins et al, J. Neurosci. 18(23): 9607-9619 (1998)). For dominant selection of the Nav1.7-expressing clones, the expression plasmid co-expressed the neomycin resistance gene. The cell line was constructed in the human embryonic kidney cell line, HEK293, under the influence of the CMV […] promoter, and stable clones were selected using limiting dilution cloning and antibiotic selection using the neomycin analogue, G418. Recombinant beta and gamma subunits were not introduced into this cell line. Additional cell lines expressing recombinant Nav1.7 cloned from other species can also be used, alone or in combination with various beta subunits, gamma subunits or chaperones.
A fluorescence indicator that can be used in alternative fluorescence assays is the blue version membrane potential dye (MDS, Molecular Devices, Sunnyvale, Calif.), a dye that detects changes in molecules following a change in membrane potential. An increase in fluorescence is expected if agonist stimulation provokes a change in membrane potential. Cells expressing Nav1.7 or other sodium channels are incubated with the membrane potential dye 30-60 minutes before the fluorescence assay. In the case of the KCl pre-stimulation version of the assay, the dye and all other components are washed out immediately before the assay, and the dye is then replaced. In the version lacking KCl pre-stimulation, the dye remains on the cells and is not washed out or replaced. The dye is stored in the dark as a lyophilized powder, and then an aliquot dissolved in assay buffer to form a 20×-concentrated stock solution that can be used for several weeks.
In the fluorescence assays, two agonists were used in combination, namely 1) veratridine; and 2) the venom from the yellow scorpion, Leiurus quinquestriatus hebraeus. Veratridine is an alkaloid small molecule that facilitates the capture of channel openings by inhibiting inactivation, and the scorpion venom is a natural preparation that includes peptide toxins selective for different subsets of voltage-gated sodium channels. These scorpion toxins inhibit the fast inactivation of their cognate target channels. Stock solutions of the agonists were prepared to 40 mM in DMSO (veratridine) and 1 mg/mL in dH2O (scorpion venom), and then diluted to make a 4× or 2× stock (depending on the particular assay) in assay buffer, the final concentration being 100 μM (veratridine) and 10 μg/mL (scorpion venom). Both of the agonists were purchased from Sigma Aldrich, St. Louis, Mo.
Test compounds were dissolved in DMSO to yield 10 mM stock solutions. The stock solutions were further diluted using DMSO in 1:3 serial dilution steps with 10 points (10,000 μM, […], 370 μM, 123 μM, 41 μM, 14 μM, 4.6 μM, 1.5 μM and 0.5 μM). The stock solutions were further diluted in assay buffer (1:125) as 4× stock serial dilutions with a DMSO concentration of 0.8% (final [DMSO], in the assay, from the compounds component=0.2%), so that the compounds' final concentrations in the assay were 20 μM, 6.7 μM, 2.2 μM, 0.74 μM, 0.25 μM and 0.08 μM, 0.03 μM, 0.01 μM, 0.003 μM and 0.001 μM. If a particular test article appeared to be especially potent, then the concentration curve was adjusted, e.g., to 10-fold lower concentrations, in order to perform the dose-response in a more relevant concentration range. Compound dilutions were added during the dye-loading and pre-stimulation step, and then again during the fluorescence assay, early in the kinetic read.
The data were analyzed according to methods known to those skilled in the art or using the GraphPad® Prism Program, version 4.0 or higher (available from GraphPad Software, San Diego, Calif.) to determine the IC50 value for the test article. […]

Chain of human Nav1.7 (Q15858 other isoform, or with tags, fused parts or gaps): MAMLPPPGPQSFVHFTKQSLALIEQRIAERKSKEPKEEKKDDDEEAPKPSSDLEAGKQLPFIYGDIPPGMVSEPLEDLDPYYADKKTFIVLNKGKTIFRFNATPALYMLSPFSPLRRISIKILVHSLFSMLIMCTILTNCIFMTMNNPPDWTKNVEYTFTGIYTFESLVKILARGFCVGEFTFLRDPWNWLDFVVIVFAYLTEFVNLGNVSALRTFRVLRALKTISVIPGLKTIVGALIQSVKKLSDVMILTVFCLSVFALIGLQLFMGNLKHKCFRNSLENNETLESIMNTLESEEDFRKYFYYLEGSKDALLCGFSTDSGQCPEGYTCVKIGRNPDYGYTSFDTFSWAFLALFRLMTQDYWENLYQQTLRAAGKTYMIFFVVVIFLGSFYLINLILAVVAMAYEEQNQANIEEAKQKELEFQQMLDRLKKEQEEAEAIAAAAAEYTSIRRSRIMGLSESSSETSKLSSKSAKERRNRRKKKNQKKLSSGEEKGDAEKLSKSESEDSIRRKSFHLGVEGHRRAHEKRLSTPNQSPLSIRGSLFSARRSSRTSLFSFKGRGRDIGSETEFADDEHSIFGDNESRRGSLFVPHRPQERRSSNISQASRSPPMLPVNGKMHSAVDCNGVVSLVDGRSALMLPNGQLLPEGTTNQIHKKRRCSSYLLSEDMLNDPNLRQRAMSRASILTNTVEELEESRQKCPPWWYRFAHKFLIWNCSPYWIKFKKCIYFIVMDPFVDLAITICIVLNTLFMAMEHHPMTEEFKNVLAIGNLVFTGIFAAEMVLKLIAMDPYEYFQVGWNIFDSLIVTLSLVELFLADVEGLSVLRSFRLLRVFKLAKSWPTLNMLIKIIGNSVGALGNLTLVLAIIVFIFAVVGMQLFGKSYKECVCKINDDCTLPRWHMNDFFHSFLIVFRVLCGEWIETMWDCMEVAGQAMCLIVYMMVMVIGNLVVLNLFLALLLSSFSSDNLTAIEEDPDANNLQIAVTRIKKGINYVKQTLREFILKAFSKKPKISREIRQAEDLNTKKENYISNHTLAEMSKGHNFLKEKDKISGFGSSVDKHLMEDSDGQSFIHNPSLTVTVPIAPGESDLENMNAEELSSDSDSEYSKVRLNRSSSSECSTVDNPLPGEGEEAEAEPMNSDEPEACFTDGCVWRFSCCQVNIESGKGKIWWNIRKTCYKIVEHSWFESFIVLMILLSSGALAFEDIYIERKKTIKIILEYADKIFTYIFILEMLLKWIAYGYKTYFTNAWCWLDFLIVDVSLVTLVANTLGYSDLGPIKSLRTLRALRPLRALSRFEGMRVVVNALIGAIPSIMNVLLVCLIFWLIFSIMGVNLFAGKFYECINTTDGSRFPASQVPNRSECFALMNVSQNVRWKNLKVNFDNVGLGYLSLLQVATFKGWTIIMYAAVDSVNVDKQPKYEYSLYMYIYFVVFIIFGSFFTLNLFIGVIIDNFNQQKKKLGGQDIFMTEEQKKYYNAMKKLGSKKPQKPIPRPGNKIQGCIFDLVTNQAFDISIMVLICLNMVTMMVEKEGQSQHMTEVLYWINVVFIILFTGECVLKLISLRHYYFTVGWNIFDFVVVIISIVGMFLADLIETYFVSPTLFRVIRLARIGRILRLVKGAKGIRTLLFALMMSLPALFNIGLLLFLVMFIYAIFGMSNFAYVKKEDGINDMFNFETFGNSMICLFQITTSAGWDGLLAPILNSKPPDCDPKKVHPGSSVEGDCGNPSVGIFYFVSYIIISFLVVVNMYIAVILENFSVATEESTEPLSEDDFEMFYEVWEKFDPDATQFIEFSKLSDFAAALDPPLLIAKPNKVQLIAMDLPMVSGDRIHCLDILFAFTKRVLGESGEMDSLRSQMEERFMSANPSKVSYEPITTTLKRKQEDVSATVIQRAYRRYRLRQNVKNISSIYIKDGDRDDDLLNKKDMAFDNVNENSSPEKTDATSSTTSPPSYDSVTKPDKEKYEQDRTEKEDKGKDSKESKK

Row | IC50 [µM] | SMILES
1 | 0.684 ± 0.034 | CN(C)c1ncc(-c2cc(C(F)(F)F)ccc2Oc2ccc(-c3nc(N[C@H]4CCNC4=O)cc(C(N)=O)n3)cc2)cn1 [compound 128, (S)-2-(4-(2-(2-(dimethylamino)pyrimidin-5-yl)-4-(trifluoromethyl)phenoxy)phenyl)-6-((2-oxopyrrolidin-3-yl)amino)pyrimidine-4-carboxamide]
2 | > 20 | O=C(NC[C@@H](O)CO)c1cc(C(F)(F)F)ccc1Oc1ccc(-c2cccc([C@H](O)CO)n2)cc1 [compound 167, 2-(4-(6-((S)-1,2-dihydroxyethyl)pyridin-2-yl)phenoxy)-N-((R)-2,3-dihydroxypropyl)-5-(trifluoromethyl)benzamide]
3 | 0.702 ± 0.035 | CN(C)c1cnc(-c2cc(C(F)(F)F)ccc2Oc2ccc(-c3nc(N[C@H]4CCNC4=O)cc(C(N)=O)n3)cc2)cn1 [compound 129, (S)-2-(4-(2-(5-(dimethylamino)pyrazin-2-yl)-4-(trifluoromethyl)phenoxy)phenyl)-6-((2-oxopyrrolidin-3-yl)amino)pyrimidine-4-carboxamide]
4 | > 20 | NC(=O)C1CCCN(C(=O)c2cc(C(F)(F)F)ccc2Oc2ccc(-c3cccc([C@H](O)CO)n3)cc2)C1 (stereo partly drawn) [compound 173, 1-(2-(4-(6-((S)-1,2-dihydroxyethyl)pyridin-2-yl)phenoxy)-5-(trifluoromethyl)benzoyl)piperidine-3-carboxamide]

The next lines start with the compound.

Row | SMILES | IC50 [µM]
5 | Cn1nccc1-c1cc(C(F)(F)F)ccc1Oc1ccc(-c2cc([C@H](O)CO)cc(C(N)=O)n2)cc1 [compound 135, (S)-4-(1,2-dihydroxythyl)-6-(4-(2-(1-methyl-1H-pyrazol-5-yl)-4-(trifluoromethyl)phenoxy)phenyl) picolinamide] | 0.294 ± 0.054
6 | NC(=O)c1cc(CCn2ccnc2)nc(-c2ccc(Oc3ccc(C(F)(F)F)cc3CN3CCOCC3)cc2)n1 [compound 127, 6-(2-(1H-imidazol-1-yl)ethyl)-2-(4-(2-(morpholinomethyl)-4-(trifluoromethyl)phenoxy)phenyl) pyrimidine-4-carboxamide] | 0.486 ± 0.032
7 | CCN(CC)C(=O)c1cc(C(F)(F)F)ccc1Oc1ccc(-c2cccc([C@H](O)CO)n2)cc1 [compound 168, (S)-2-(4-(6-(1,2-dihydroxyethyl)pyridin-2-yl)phenoxy)-N,N-diethyl-5-(trifluoromethyl)benzamide] | 0.519 ± 0.083
8 | O=C(c1cc(C(F)(F)F)ccc1Oc1ccc(-c2cccc([C@H](O)CO)n2)cc1)N1CC[C@H](O)C1 [compound 170, (2-(4-(6-((S)-1,2-dihydroxyethyl)pyridin-2-yl)phenoxy)-5-(trifluoromethyl)phenyl)((S)-3-hydroxypyrrolidin-1-yl)methanone] | > 20
